According to PubChem BioAssay (NCI):
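Where inhibition never reached the appropriate level, the endpoint shown equals the highest concentration tested. Otherwise, values were interpolated linearly from a five-concentration, 48-hour dose response in 96-well plates. GI50 = concentration required for 50% inhibition of growth. TGI is the concentration that stops growth completely.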

Assays:
Assay in all cases: inhibition of tumour cell growth, NCI panel, 48 h
[1] = test system: UO-31 renal
[2] = test system: CAKI-1 renal
[3] = test system: SN12C renal
[4] = test system: 786-0 renal
[5] = test system: EKVX NSCLC
[6] = test system: SF-295 CNS
[7] = test system: NCI/ADR-RES ovarian
[8] = test system: A498 renal
[9] = test system: A549 NSCLC
[10] = test system: MOLT-4 leukemia
[11] = test system: IGROV1 ovarian
[12] = test system: SK-OV-3 ovarian
[13] = test system: SK-MEL-28 melanoma
[14] = test system: SNB-75 CNS
[15] = test system: HOP-62 NSCLC
[16] = test system: MCF7 breast
[17] = test system: BT-549 breast
[18] = test system: HL-60(TB) leukemia
[19] = test system: SF-268 CNS
[20] = test system: SNB-19 CNS
[21] = test system: SW-620 colon
[22] = test system: SK-MEL-5 melanoma
[23] = test system: TK-10 renal
[24] = test system: COLO 205 colon
[25] = test system: OVCAR-5 ovarian
[26] = test system: OVCAR-8 ovarian

`Cn1c2c(c3ccc([N+](=O)[O-])cc3c1=O)C(=O)c1ccccc1-2` showed a GI50 [1] of over 100 µM, a TGI [1] of over 100 µM and a GI50 [2] of 80.5 µM. The TGI [2] was over 100 µM, the GI50 [3] was over 100 µM and the TGI [3] was over 100 µM. For the same molecule, the GI50 [4] was over 100 µM, the TGI [4] was over 100 µM and the GI50 [5] was over 100 µM. The TGI [5] was over 100 µM, the GI50 [6] was 22.7 µM and the TGI [6] was over 100 µM. For the same molecule, the GI50 [7] was over 100 µM, the TGI [7] was over 100 µM and the GI50 [8] was over 100 µM. It also gave a TGI [8] of over 100 µM, a GI50 [9] of over 100 µM and a TGI [9] of over 100 µM. It also gave a GI50 [10] of over 100 µM, a TGI [10] of over 100 µM and a GI50 [11] of over 100 µM. It also gave a TGI [11] of over 100 µM, a GI50 [12] of over 100 µM and a TGI [12] of over 100 µM. For the same molecule, the GI50 [13] was over 100 µM, the TGI [13] was over 100 µM and the GI50 [14] was over 100 µM. It also gave a TGI [14] of over 100 µM, a GI50 [15] of over 100 µM and a TGI [15] of over 100 µM. The GI50 [16] was over 100 µM, the TGI [16] was over 100 µM and the GI50 [17] was over 100 µM. The TGI [17] was over 100 µM, the GI50 [18] was over 100 µM and the TGI [18] was over 100 µM. The GI50 [19] was over 100 µM, the TGI [19] was over 100 µM and the GI50 [20] was over 100 µM. The TGI [20] was over 100 µM, the GI50 [21] was over 100 µM and the TGI [21] was over 100 µM. For the same molecule, the GI50 [22] was over 100 µM, the TGI [22] was over 100 µM and the GI50 [23] was over 100 µM. It also gave a TGI [23] of over 100 µM, a GI50 [24] of over 100 µM and a TGI [24] of over 100 µM. For the same molecule, the GI50 [25] was over 100 µM, the TGI [25] was over 100 µM and the GI50 [26] was over 100 µM. The TGI [26] was over 100 µM.
